Results as given in patent US10350152B2, “Skin whitening composition, and method for screening for materials having skin whitening effect” (AMOREPACIFIC CORPORATION, priority 2015, dated 2019).

Assays:
[1] = tested on: melanocytes; assay: Viability of melanocytes cultured with exosomes (crystal violet cytotoxicity test); format: cell-based, human; conditions: exosomes from melanocytes treated with ultraviolet rays together with inhibitor; recipient melanocytes irradiated with UVB 20 mJ/cm^2, cultured 3 days
Procedure: Normal human melanocytes (Cascade Biologics, Portland, Oreg., USA) were kept in M-254 medium (Cascade) containing a human melanocyte growth supplement (Cascade). GW4869 (Santa Cruz Biotechnology, Santa Cruz, Calif., USA) and pifithrin-μ (Sigma, St. Louis, Mo., USA) were dissolved in DMSO for use. Melanocytes were seeded in a 6-well plate at a density of 1×10^4 cells/well. The next day, 10 μl of exosomes isolated from the same number of cells were treated. Cells were fixed with 4% formaldehyde in PBS for 15 minutes, washed with PBS and stained with 0.1% crystal violet for 20 minutes. After washing with PBS, the cells were dried and lysed with 10% acetic acid. The absorbance was measured at 590 nm using a spectrophotometer. Each of the exosomes obtained from UVB-untreated melanocytes, UVB-treated melanocytes, or UVB- and GW4869-treated melanocytes, together with melanocytes, were irradiated with UVB (20 mJ/cm^2), and cultured for 3 days.

[2] = tested on: Normal human melanocytes; assay: Amount of secretion of exosomes from UVB-irradiated melanocytes (exosome marker CD81, western blot); format: cell-based; conditions: 10 μM, treated for 12 hours before UVB exposure (20 mJ/cm^2), cultured 24 hours
Procedure: Normal human melanocytes (Cascade Biologics, Portland, Oreg., USA) were kept in M-254 medium (Cascade) containing a human melanocyte growth supplement (Cascade). GW4869 (Santa Cruz Biotechnology, Santa Cruz, Calif., USA) and pifithrin-μ (Sigma, St. Louis, Mo., USA) were dissolved in DMSO for use. For isolation of exosomes, confluent melanocytes were washed with PBS and cultured in M-254 for 48 hours. Conditioned medium was collected and centrifuged at 500×g for 10 minutes, 3,000×g for 20 minutes, and 100,000×g for 2 hours. The resultant exosome-containing pellet was resuspended in PBS and stored at −80° C. Also, conditioned medium was purified by filtration through a 0.45 μm pore filter (Millipore, Billerica, Mass., USA) and concentrated using a 100 kDa cut-off spin column (Millipore). Exosomes were isolated using the ExoQuick-TC kit (SBI, San Jose, Calif., USA) according to the manufacturer's instructions. 20 μl of isolated exosomes were analyzed by western blot and silver staining. Cells or isolated exosomes were lysed with lysis buffer (1% NP-40, 0.05 M Tris-HCl, pH 7.5, 0.15 M NaCl, and 0.01 M MgCl2) containing protease inhibitors (Sigma). Protein concentrations were determined using BCA assays, and samples were […] by SDS-PAGE, transferred to a PVDF membrane, and probed with antibodies against CD81 (SBI). […]

SMILES | effect of exosomes from UVB- and inhibitor-treated melanocytes on viability of ultraviolet-irradiated melanocytes [1] | amount of expression of the exosome marker CD81 [2]
Cl.Cl.O=C(/C=C/c1ccc(/C=C/C(=O)Nc2ccc(C3=NCCN3)cc2)cc1)Nc1ccc(C2=NCCN2)cc1 [GW4869] | reduced effect in the enhancement of the viability of melanocytes | decreased
NS(=O)(=O)C#Cc1ccccc1 [pifithrin-μ] | reduced effect in the enhancement of the viability of melanocytes | decreased
